For assay [1], the system named is tactile allodynia in a spinal nerve ligation neuropathic pain model. The assay is described as follows: Lumbar 5/6 spinal nerve ligation neuropathic pain model, mechanical paw withdrawal threshold (von Frey). In kind it is in vivo, rat. To be noted: pretreatment with 5 mg/kg i.p.; rats. The text has this:
Neuropathic pain was induced following the methods of Kim and Chung. Kim S H, Chung J M. An experimental model for peripheral neuropathy produced by segmental spinal nerve ligation in the rat. Pain 1992; 50:355-63. Rats were anesthetized and placed prone under a microsurgical apparatus. A midline incision was made on the back, and the right paraspinal muscles were separated from the spinous processes at the L4-S2 levels. The L6 transverse process was carefully removed, and the L4/5 spinal nerves were identified. The L5 nerve was tightly ligated with a 6-0 silk suture. The right L6 spinal nerve was then located just caudal and medial to the sacroiliac junction and tightly ligated with a silk suture.
Two weeks later after spinal nerve ligation, Intrathecal catheters (PE-10 tubing) was inserted into the rats while they were anesthetized with isoflurane, as described by Yaksh and Rudy. Yaksh T L, Rudy T A. Chronic catheterization of the spinal subarachnoid space. Physiology & Behavior 1976; 17:1031-6. A midline incision was made on the back of the neck. The muscle was freed at the attachment to the skull exposing the cisternal membrane. The membrane was opened with a stab blade and an 8.5 cm polyethylene (PE-10) catheter was then inserted through the cisternal opening, and passed carefully and caudally into the intrathecal space at the L1-L3 spinal segments. The end of the catheter was tunneled through the subcutaneous space over the frontal bones, flushed with 10 μl saline, and then plugged with a short length of wire Animal testing was performed 5-7 days after intrathecal catheter placement.
To assess mechanical allodynia, the mechanical paw withdrawal threshold was measured with a series of von Frey hairs (range 0.4-15 g). Rats were placed in elevated Perspex enclosures (28 cm×15 cm×18 cm) with wire mesh bases and given 15-20 min to acclimatize to the testing environment. Rats will be allowed to acclimatize for 30 min in a clear plastic cage with a wire mesh bottom. The calibrated von Frey filament fibers were applied to the hindpaw briefly for 6 seconds to determine the paw withdrawal threshold before and after drug injection (intraperitoneally or intrathecally). A series of von Frey filaments with exponentially incremental stiffness (0.4, 0.7, 1.2, 2.0, 3.6, 5.5, 8.5 and 15 g) were used to measure the 50% threshold for hindpaw withdrawal in awake, unrestrained rats. Chaplan S R, Bach F W, Pogrel J W, Chung J M, Yaksh T L. Quantitative assessment of tactile allodynia in the rat paw. Journal of Neuroscience Methods 1994; 53:55-63. Brisk paw withdrawal from the pressure of a filament gently bent against the plantar paw was defined as a positive response, and absence of withdrawal within 6 s as a negative response. Filaments were touched to the hindpaw in sequential ascending or descending order until the threshold of response is crossed (allowing about 10 s between each increment of the von Frey filaments). Each time the threshold is crossed, the direction of stimulus presentation was reversed and the procedure will be resumed. Four responses were collected after the first threshold detection, and the 50% withdrawal thresholds were interpolated. In cases where response thresholds fell outside the range of detection, 15.00 and 0.25 g were, respectively, assigned for continuous negative or positive responses to the limit of stimuli.
All surgical procedures were performed under deep isoflurane anesthesia in 100% O2. The spinal nerve ligation (SNL) was performed as described previously. Kim, S. H., et al., An Experimental Model for Peripheral Neuropathy Produced by Segmental Spinal Nerve Ligation in the Rat, Pain, 1992, 50:355-63. Briefly, a midline incision above the lumbar spine exposed the left L6 transverse process. The process was then removed, the left L5 and L6 spinal nerves were isolated, and both nerves were tightly ligated with 6-0 silk. […]

In assay [2] the target is T1, human CB1 (hCB1) receptor (Homo sapiens, UniProt P21554).
T1 construct: expressed in transfected cells; host or cells: CHO (Chinese hamster ovary) cells, membranes
The assay is described as follows: CB1 binding assay, competitive binding of [3H]CP 55940. To be noted: at 1 μM; specific binding of [3H]-CP55940; CHO membranes. The procedure, abridged: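 CHO cell membranes expressing human CB1 (25 μg protein) incubated 120 min at 37 °C with 0.5 nM [3H]CP 55940 in Tris-HCl pH 7.4 buffer with MgCl2, EDTA, 0.3% BSA. Filtration and scintillation counting; compound tested at 1 μM, given as percent inhibition of control specific binding.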

Assay [3] deals with T2, human CB2 (hCB2) receptor (Homo sapiens, UniProt P34972).
T2 construct: expressed in transfected cells; host or cells: CHO (Chinese hamster ovary) cells, membranes
The assay is described as follows: CB2 binding assay, competitive binding of [3H]WIN 55212-2. To be noted: read-out: % inhibition hCB2 receptor, at 1 μM; specific binding of [3H]-WIN55212-2; CHO membranes. The procedure, abridged: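 CHO cell membranes expressing hCB2 (15 μg protein) incubated 120 min at 37° C with 0.8 nM [3H]WIN 55212-2 in 50 mM HEPES/Tris pH 7.4, 5 mM MgCl2, 2.5 mM EGTA, 0.1% BSA; nonspecific binding with 10 μM WIN 55212-2. Filtration and scintillation counting; compounds at 1 μM, reported as % inhibition of control specific binding.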

In another assay the target is T3, hCB2 receptor (Homo sapiens, UniProt P34972).
T3 construct: purchased ES-111-MG; host or cells: CHO membrane extracts
The assay is described as follows: CB2 functional assay, [35S]GTP-γ-S binding. The format is biochemical. As to the method:
(§1) A dose response curve was generated at eight concentrations in duplicate on CB1 and CB2 in light of reference agonists.
(§2) Membranes (CB1, ES-110-MG or CB2, ES-111-MG) are mixed with GDP (volume:volume) and incubated for at least […] on ice. In parallel, […] are mixed with the beads (volume:volume) just before starting the reaction. The following reagents are successively added in the wells of an Optiplate: 50 μl of ligand, 20 μl of the membranes:GDP mix, 10 μl of assay buffer for agonist testing and 20 μl of the […]: beads mix. The plates are covered with a topseal, shaken on an orbital shaker for 2 min, and then incubated between 30 to 60 min at room temperature. Then the plates are centrifuged for 10 min at 2000 rpm, incubated at room temperature between 1 to 4 hours and counted for 1 min with a PerkinElmer TopCount reader.
(§3) Functional activity for acyl hydrazone was evaluated using [^35S]GTP-γ-S assay in CHO membrane extracts expressing recombinant hCB1 receptor or hCB2 receptor. The assay relies on the binding of [^35S]GTP-γ-S, a radiolabeled nonhydrolyzable GTP analogue, to the G protein upon binding of an agonist of the G-protein-coupled receptor. In this system, agonists stimulate [^35S]GTP-γ-S binding whereas neutral antagonist have no effect and inverse agonists decrease [^35S]GTP-γ-S basal binding.
(§4) CB1 and CB2 assay data are presented as the mean of two determinations. […] For replicate determinations, the maximum variability tolerated in the test was of ±20% around the average of the replicates.

Assay [4] concerns the target T4, CB1 (Homo sapiens, UniProt P21554). The assay is described as follows: CB1 antagonist functional assay. In kind it is biochemical. As to conditions: data not shown.
Assay [5] addresses T4, CB1. The assay is described as follows: CB1 functional assay, [35S]GTP-γ-S binding. The format is biochemical. More on the design: purchased ES-110-MG; host or cells: CHO membrane extracts. As to conditions: read-out: [35S]GTP-γ-S hCB1 Emax (%); Table 9 footnote a: Efficacy determined at 3 μM; relative to CP 55,940. On the procedure:
as §1, §2, §3, §4

The values below come from patent publication US9079854B2 (priority 2007, dated 2015).

T3 sequence (P34972 whole entry): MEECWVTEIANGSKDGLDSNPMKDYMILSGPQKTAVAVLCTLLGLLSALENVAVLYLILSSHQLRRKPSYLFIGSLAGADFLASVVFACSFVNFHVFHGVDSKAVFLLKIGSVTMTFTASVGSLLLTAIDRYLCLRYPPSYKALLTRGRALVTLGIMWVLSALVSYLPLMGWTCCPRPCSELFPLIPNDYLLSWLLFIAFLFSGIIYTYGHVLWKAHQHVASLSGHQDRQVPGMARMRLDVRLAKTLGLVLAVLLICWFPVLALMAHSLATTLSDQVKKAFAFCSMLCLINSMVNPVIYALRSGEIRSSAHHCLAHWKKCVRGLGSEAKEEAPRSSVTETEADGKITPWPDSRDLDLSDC
T4 sequence (P21554 whole entry): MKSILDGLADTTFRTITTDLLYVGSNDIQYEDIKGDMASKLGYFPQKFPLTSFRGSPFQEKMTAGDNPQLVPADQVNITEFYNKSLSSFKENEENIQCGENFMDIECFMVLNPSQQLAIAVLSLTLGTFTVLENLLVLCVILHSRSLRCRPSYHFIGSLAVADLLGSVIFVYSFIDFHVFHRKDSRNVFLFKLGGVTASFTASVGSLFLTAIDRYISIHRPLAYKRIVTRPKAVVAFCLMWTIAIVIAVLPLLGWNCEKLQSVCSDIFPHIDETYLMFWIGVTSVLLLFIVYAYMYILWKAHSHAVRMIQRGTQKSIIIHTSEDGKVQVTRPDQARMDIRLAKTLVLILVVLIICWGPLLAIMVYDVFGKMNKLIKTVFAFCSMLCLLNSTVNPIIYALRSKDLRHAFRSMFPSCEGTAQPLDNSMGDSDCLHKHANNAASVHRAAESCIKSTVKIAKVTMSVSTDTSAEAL
T2 sequence (P34972 whole entry): as the sequence (P34972 whole entry) above
T1 sequence (P21554 whole entry): as the sequence (P21554 whole entry) above

Regarding `COc1ccc(C(=O)c2c(C)n(CCN3CCOCC3)c3cc(I)ccc23)cc1` [AM630, reference compound], in assay [1], the “effect of pretreatment on the anti-allodynic effect of Example 6” value is given as “antagonized the effects of compound of Example 6”.

In the case of `CCCCCCN1C(=O)/C(=N\NC(=O)c2cccc3ccccc23)c2ccccc21` [Example 19, N′-[(3Z)-1-hexyl-2-oxo-1,2-dihydro-3H-indol-3-ylidene]-1-naphthohydrazide], the inhibition at 1 µM in assay [2] is over 80%; in assay [3], 69.8 ± 4%. Also, the EC50 at hCB2 receptor (Table 9, mean of two determinations, read-out: [35S]GTP-γ-S hCB2 EC50 (nM ± SEM)) stood at 202.2 ± 2 nM. This compound also yielded an Emax at hCB2 receptor (Table 9, relative to the efficacy of CP 55,940) of 30.5%. Also, the “antagonist activity in a CB1 antagonist functional assay” value at CB1 [4] was “failed to be antagonist”. The maximal effect (Emax) at 3 µM on CB1 [5] is 12.9%.

Take `CCCCCCN1C(=O)/C(=N\NC(=O)C23CC4CC(CC(C4)C2)C3)c2ccccc21` [Example 20, N′-[(3Z)-1-hexyl-2-oxo-1,2-dihydro-3H-indol-3-ylidene]adamantane-1-carbohydrazide]: the inhibition at 1 µM in assay [2] and in assay [3] was over 85% throughout. The Emax at 3 µM was 32.1% at hCB2 receptor (read-out: [35S]GTP-γ-S hCB2 Emax (%), Table 9 footnote a: Efficacy determined at 3 μM, relative to CP 55,940) and 34.6% at CB1 [5]. Also, the “antagonist activity in a CB1 antagonist functional assay” value on CB1 [4] is “failed to be antagonist”.
